Measurements taken from the supplement of paper PMC7840683.

Tested on: HepaRG
Assay: LDH release cytotoxicity, % of total lysis control; higher = more cytotoxic
Details: 48 h
Summary of the method: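 Eight-point half-log series of test chemicals, the highest at 100 µM, were given in duplicate for 48 h to single-lot HepaRG cells on collagen I-coated 96-well plates in serum-free induction medium with 0.5% DMSO. A Tecan Safire read resorufin fluorescence from CytoTox-ONE as a measure of LDH in 50 µL spent medium, with 0.1% Triton X in total lysis wells. Percent cytotoxicity was normalized to on-plate vehicle and total lysis controls and averaged over the duplicates.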

COc1cc(Cl)c(OC)cc1Cl [Chloroneb]
Details | LDH release cytotoxicity [%]
0.03162 µM | -1.52
0.1 µM | -0.787
0.3162278 µM | -1.49
1 µM | -2.31
3.16228 µM | -1.57
10 µM | -0.979
31.6228 µM | -0.777
100 µM | 0.671

O=S(=O)(O)c1ccc(N=Nc2c(O)ccc3cc(S(=O)(=O)O)ccc23)cc1 [FD&C Yellow 6]
Details | LDH release cytotoxicity [%]
0.03162 µM | -2.21
0.1 µM | -2.28
0.3162278 µM | -3.01
1 µM | -3.07
3.16228 µM | -4.37
10 µM | -4.81
31.6228 µM | -4.8
100 µM | -4.65

O=C1OC(c2ccc(O)cc2)(c2ccc(O)cc2)c2ccccc21 [Phenolphthalein]
Details | LDH release cytotoxicity [%]
0.03162 µM | -0.731
0.1 µM | -1.59
0.3162278 µM | -0.412
1 µM | -1.68
3.16228 µM | -0.391
10 µM | 0.41
31.6228 µM | 0.57
100 µM | 10.5

CC12CC1(C)C(=O)N(c1cc(Cl)cc(Cl)c1)C2=O (centres undefined) [Procymidone]
Details | LDH release cytotoxicity [%]
0.03162 µM | -1.37
0.1 µM | -1.85
0.3162278 µM | -2.08
1 µM | -2.56
3.16228 µM | -2.762
10 µM | -1.32
31.6228 µM | -2.43
100 µM | -1.16

Cc1occc1C(=O)Nc1ccc(C(=O)N2CCC(F)(F)/C(=C\C(=O)N3CCC(N4CCCCC4)CC3)c3ccccc32)cc1 [YM218]
Details | LDH release cytotoxicity [%]
0.01976 µM | -1.36
0.0625 µM | -1.93
0.197642 µM | -3.13
0.625 µM | -2.977
1.976424 µM | -3.81
6.25 µM | -2.99
19.7642 µM | -1.84
62.5 µM | 19.8

CCOC(=O)NCCOc1ccc(Oc2ccccc2)cc1 [Fenoxycarb]
Details | LDH release cytotoxicity [%]
0.03162 µM | -2.3
0.1 µM | -2.15
0.3162278 µM | -2.2
1 µM | -2.52
3.16228 µM | -2.33
10 µM | -1.4
31.6228 µM | -2.64
100 µM | 16.6

O=C(O)c1cccc(C(=O)O)c1 [1,3-Benzenedicarboxylic acid]
Details | LDH release cytotoxicity [%]
0.03162 µM | -2.12
0.1 µM | -1.69
0.3162278 µM | -1.63
1 µM | -2.28
3.16228 µM | -2.24
10 µM | -1.69
31.6228 µM | 0.0627
100 µM | 4.89

Oc1ccc(Cl)cc1Cc1ccccc1 [Clorophene]
Details | LDH release cytotoxicity [%]
0.031939 µM | -1.4
0.101 µM | -1.14
0.31939 µM | -1.6
1.01 µM | -1.11
3.1939004 µM | -0.749
10.1 µM | -0.231
31.939 µM | -0.479
101 µM | 54

O=Cc1ccccc1C=O [1,2-Benzenedicarboxaldehyde]
Details | LDH release cytotoxicity [%]
0.03162 µM | -1.01
0.1 µM | -0.945
0.3162278 µM | -1.43
1 µM | -0.52
3.16228 µM | -0.768
10 µM | -0.0584
31.6228 µM | 1.36
100 µM | 7.96

O=c1ccc(=O)[nH][nH]1 [Maleic hydrazide]
Details | LDH release cytotoxicity [%]
0.03162 µM | -0.979
0.1 µM | -0.493
0.3162278 µM | -1.74
1 µM | -0.384
3.16228 µM | -1.91
10 µM | -1.15
31.6228 µM | 0.124
100 µM | 2.69

CCCCCCC(=O)OCC [Ethyl heptanoate]
Details | LDH release cytotoxicity [%]
0.03162 µM | -1.33
0.1 µM | -1.43
0.3162278 µM | -1.58
1 µM | -1.97
3.16228 µM | -1.57
10 µM | -1.28
31.6228 µM | 0.37
100 µM | 3.07

CN/C(=N\[N+](=O)[O-])NCc1cnc(Cl)s1 [Clothianidin]
Details | LDH release cytotoxicity [%]
0.03162 µM | -0.975
0.1 µM | -0.34
0.3162278 µM | -1.12
1 µM | -0.952
3.16228 µM | -0.743
10 µM | -0.23
31.6228 µM | -0.557
100 µM | 0.586

CCc1cccc(CC)c1N(COC)C(=O)CCl [Alachlor]
Details | LDH release cytotoxicity [%]
0.031623 µM | -1.16
0.1 µM | -1.83
0.316228 µM | -2.33
1 µM | -2.4
3.16228 µM | -2.62
10 µM | -2.23
31.6228 µM | -2.51
100 µM | -0.425

CCc1ccc(C(=O)NN(C(=O)c2cc(C)cc(C)c2)C(C)(C)C)cc1 [Tebufenozide]
Details | LDH release cytotoxicity [%]
0.03162 µM | -0.939
0.1 µM | 0.194
0.3162278 µM | -0.662
1 µM | -0.0494
3.16228 µM | -0.0064
10 µM | 0.106
31.6228 µM | 0.645
100 µM | 11.3

C=CCc1ccc(O)c(OC)c1 [Eugenol]
Details | LDH release cytotoxicity [%]
0.03162 µM | -2.2
0.1 µM | -1.91
0.3162278 µM | -1.79
1 µM | -2.07
3.16228 µM | -2.07
10 µM | -1.74
31.6228 µM | -0.896
100 µM | -0.336

CCN(CC)c1nc(C)cc(OP(=S)(OC)OC)n1 [Pirimiphos-methyl]
Details | LDH release cytotoxicity [%]
0.03162 µM | 0.287
0.1 µM | -1.19
0.3162278 µM | -1.08
1 µM | -0.906
3.16228 µM | -1.49
10 µM | -0.783
31.6228 µM | -1.01
100 µM | -1.29

O=S(=O)(O)C(F)(F)C(F)(F)C(F)(F)C(F)(F)C(F)(F)C(F)(F)F [Potassium perfluorohexanesulfonate]
Details | LDH release cytotoxicity [%]
0.03162 µM | -0.914
0.1 µM | -1.15
0.3162278 µM | -1.06
1 µM | -1.98
3.16228 µM | -1.95
10 µM | -0.831
31.6228 µM | -1.52
100 µM | -0.438

CCCCOC(=O)C(C)Oc1ccc(Oc2ccc(C(F)(F)F)cn2)cc1 (centres undefined) [Fluazifop-butyl]
Details | LDH release cytotoxicity [%]
0.03162 µM | -0.307
0.1 µM | -0.771
0.3162278 µM | -0.631
1 µM | -0.375
3.16228 µM | -0.996
10 µM | 0.207
31.6228 µM | 0.479
100 µM | 1.84
